Results from US10662183B2, “Inhibitors of myocardin-related transcription factor and serum response factor (MRTF/SRF)-mediated gene transcription and methods for use of the same” (THE REGENTS OF THE UNIVERSITY OF MICHIGAN, priority 2014, dated 2020).

System: SRE.L-firefly luciferase reporter (Rho/MKL1 pathway) in PC-3 prostate cancer cells
Test: SRE.L-luciferase reporter assay
Assay type: cell-based
Details: PC-3 cells transfected with Gα12Q231L, SRE.L and pRL-TK reporters, compound 19 hrs
Protocol: Seed PC-3 prostate cancer cells (40,000 cells/well) were grown in 96-well plates in 10% FBS containing DMEM medium. Cells were transiently transfected with the Ga12QL activator of the Rho/MKL1 pathway, along with the SRE.L-firefly luciferase reporter construct for 6 hours. Additionally, cells were co-transfected with the TK-Renilla luciferase reporter as an indicator of non-specific compound effects. Various concentrations of the compounds disclosed herein were added to the 96-well plates. Plates were incubated for 19 hours at 37° C. and 5% C02 in 0.5% FBS containing DMEM medium. Cells were lysed with IX Passive Lysis Buffer (Promega). Plates were incubated for 30 minutes at room temperature. Luminescence counts were read with a Victor2 (Perkin-Elmer) plate reader.
One hour prior to cell lysis for the dual luciferase assay, 10 μl: per well of WST1 reagent (Roche) was added to the 96-well plates. Plates were incubated for 1 hour at 37° C. and 5% CO2. Cell viability was measured by WST1 absorbance at 450 nm with a Victor2 (Perkin-Elmer) plate reader.
Biological activity of the compounds disclosed herein were assessed in the SRE.L luciferase reporter assay. PC-3 prostate cancer cells were co-transfected with 2 ng of the Gα12Q231L expression plasmid along with 50 ng of the SRE.L and 7 ng of the pRL-TK luciferase reporter plasmids, as described in the Materials and Methods section. Cells were treated with 0 (vehicle, DMSO alone), 1, 3, 10, 30, and 100 μM of a compound disclosed herein for 19 hrs after transfection before lysis. Luminescence was determined as described in the Materials and Methods section. Just before cell lysis, the viability of the cells was measured using the WST-1 cell proliferation reagent as described in the Materials and Methods section. Data are expressed as percentage of inhibition (DMSO alone=0%). The experiments were performed three separate times to achieve n=3 in triplicate.

SMILES	IC50 (19 h) [µM]	IC50 [µM]
O=C(Nc1ccc(Cl)cc1)C1CN(C(=O)c2cccc(-c3ccco3)c2)CC(F)(F)C1 (stereo not shown) [Example E-019, N-(4-chlorophenyl)-5,5-difluoro-1-(3-(furan-2-yl)benzoyl)piperidine-3-carboxamide]	0.58	–
C=C1CC(C(=O)Nc2ccc(Cl)cc2)CN(C(=O)c2cccc(-c3ccco3)c2)C1 (stereo not shown) [Example E-020, N-(4-chlorophenyl)-1-(3-(furan-2-yl)benzoyl)-5-methylenepiperidine-3-carboxamide]	1.9	–
COC1(OC)CC(C(=O)Nc2ccc(Cl)cc2)CN(C(=O)c2cccc(-c3ccco3)c2)C1 (stereo not shown) [Example E-021, N-(4-chlorophenyl)-1-(3-(furan-2-yl)benzoyl)-5,5-dimethoxypiperidine-3-carboxamide]	4.4	–
O=C(Nc1ccc(Cl)cc1)C1CCCN(C(=O)c2cncc(-c3ccco3)c2)C1 (stereo not shown) [Example E-023, N-(4-chlorophenyl)-1-(5-(furan-2-yl)nicotinoyl)piperidine-3-carboxamide]	4.9	–
O=C(Nc1ccc(Cl)cc1)C1CCCN(C(=O)c2cc(-c3ccco3)ccn2)C1 (stereo not shown) [Example E-024, N-(4-chlorophenyl)-1-(4-(furan-2-yl)picolinoyl)piperidine-3-carboxamide]	4.3	–
O=C(Nc1ccc(Cl)cc1)C1CN(C(=O)c2cc(-c3ccco3)ccn2)CC(F)(F)C1 (stereo not shown) [Example E-025, N-(4-chlorophenyl)-5,5-difluoro-1-{[4-(furan-2-yl)pyridin-2-yl]carbonyl}piperidine-3-carboxamide]	0.81	–
O=C(Nc1ccc(Cl)cc1)C1CN(C(=O)c2cncc(-c3ccco3)c2)CC(F)(F)C1 (stereo not shown) [Example E-026, N-(4-chlorophenyl)-5,5-difluoro-1-{[5-(furan-2-yl)pyridin-3-yl]carbonyl}piperidine-3-carboxamide]	5.3	–
O=C(Nc1ccc(Cl)cc1)C1CC(O)CN(C(=O)c2cccc(-c3ccco3)c2)C1 (stereo not shown) [Example E-027, N-(4-chlorophenyl)-1-{[3-(furan-2-yl)phenyl]carbonyl}-5-hydroxypiperidine-3-carboxamide]	12.5	–
CC1(C(=O)Nc2ccc(Cl)cc2)CCCN(C(=O)c2cccc(-c3ccco3)c2)C1 (stereo not shown) [Example E-028, N-(4-chlorophenyl)-1-(3-(furan-2-yl)benzoyl)-3-methylpiperidine-3-carboxamide]	5	–
Cc1ccc(-c2cccc(C(=O)N3CCCC(C(=O)Nc4ccc(Cl)cc4)C3)c2)o1 (stereo not shown) [Example E-029, N-(4-chlorophenyl)-1-(3-(5-methylfuran-2-yl)benzoyl)piperidine-3-carboxamide]	3.1	–
O=C(Nc1ccc(Cl)cc1)C1CCCN(C(=O)c2cccc(-n3cccn3)c2)C1 (stereo not shown) [Example E-030, 1-(3-(1H-pyrazol-1-yl)benzoyl)-N-(4-chlorophenyl)piperidine-3-carboxamide]	6.1	–
O=C(Nc1ccc(Cl)cc1)C1CCCN(C(=O)c2cccc(-c3cn[nH]c3)c2)C1 (stereo not shown) [Example E-031, 1-(3-(1H-pyrazol-4-yl)benzoyl)-N-(4-chlorophenyl)piperidine-3-carboxamide]	3.4	–
O=C(Nc1ccc(Cl)cc1)C1CCCN(C(=O)c2cccc(-c3cc[nH]n3)c2)C1 (stereo not shown) [Example E-032, 1-(3-(1H-pyrazol-3-yl)benzoyl)-N-(4-chlorophenyl)piperidine-3-carboxamide]	3.2	–
COc1ccc2nc(C(=O)N3CCCC(C(=O)Nc4ccc(Cl)cc4)C3)[nH]c2c1 (stereo not shown) [Example E-033, N-(4-chlorophenyl)-1-(6-methoxy-1H-benzo[d]imidazole-2-carbonyl)piperidine-3-carboxamide]	2.7	–
O=C(Nc1ccc(Cl)cc1)C1CCCN(C(=O)c2cc(-c3ccco3)ncn2)C1 (stereo not shown) [Example E-034, N-(4-chlorophenyl)-1-(6-(furan-2-yl)pyrimidine-4-carbonyl) piperidine-3-carboxamide]	> 100	–
Cn1c(C(=O)N2CCCC(C(=O)Nc3ccc(Cl)cc3)C2)nc2ccccc21 (stereo not shown) [Example E-035, N-(4-chlorophenyl)-1-(1-methyl-1H-benzo[d]imidazole-2-carbonyl)piperidine-3-carboxamide]	8	–
O=C(Nc1ccc(Cl)cc1)C1CCCN(C(=O)c2cnc(Br)s2)C1 (stereo not shown) [Example E-036, 1-(2-bromothiazole-5-carbonyl)-N-(4-chlorophenyl) piperidine-3-carboxamide]	> 100	–

SMILES	IC50 (19 h) [µM]	IC50 [µM]
O=C(Nc1ccc(Cl)cc1)C1CCCN(C(=O)c2cnc(-c3ccco3)s2)C1 (stereo not shown) [Example E-037, N-(4-chlorophenyl)-1-(2-(furan-2-yl)thiazole-5-carbonyl)piperidine-3-carboxamide]	18	–
O=C(Nc1ccc(Cl)cc1)C1CCCN(C(=O)c2csc(-c3ccco3)n2)C1 (stereo not shown) [Example E-038, N-(4-chlorophenyl)-1-(2-(furan-2-yl)thiazole-4-carbonyl) piperidine-3-carboxamide]	6.5	–
O=C(Nc1ccc(Cl)cc1)C1CCCN(C(=O)c2cc(-c3ccco3)on2)C1 (stereo not shown) [Example E-039, N-(4-chlorophenyl)-1-(5-(furan-2-yl)isoxazole-3-carbonyl) piperidine-3-carboxamide]	43	–
O=C(Nc1ccc(Cl)cc1)C1CCCN(C(=O)c2cc(-c3ccco3)[nH]n2)C1 (stereo not shown) [Example E-040, N-(4-chlorophenyl)-1-(5-(furan-2-yl)-1H-pyrazole-3-carbonyl)piperidine-3-carboxamide]	8.1	–
O=C(Nc1ccc(Cl)cc1)C1CN(C(=O)c2cc(F)cc(-c3ccncc3)c2)CC(F)(F)C1 (stereo not shown) [Example E-041, N-(4-chlorophenyl)-5,5-difluoro-1-(3-fluoro-5-(pyridin-4-yl)benzoyl)piperidine-3-carboxamide]	0.83	–
O=C(Nc1ccc(Cl)cc1)C1CN(C(=O)c2cncc(-c3ccncc3)c2)CC(F)(F)C1 (stereo not shown) [Example E-042, 1-([3,4′-bipyridine]-5-carbonyl)-N-(4-chlorophenyl)-5,5-difluoropiperidine-3-carboxamide]	0.91	–
NC1CC(C(=O)Nc2ccc(Cl)cc2)CN(C(=O)c2cccc(-c3ccco3)c2)C1 (stereo not shown) [Example E-043, 5-amino-N-(4-chlorophenyl)-1-(3-(furan-2-yl)benzoyl)piperidine-3-carboxamide]	5	–
CNC1CC(C(=O)Nc2ccc(Cl)cc2)CN(C(=O)c2cccc(-c3ccco3)c2)C1 (stereo not shown) [Example E-044, N-(4-chlorophenyl)-1-(3-(furan-2-yl)benzoyl)-5-(methylamino)piperidine-3-carboxamide]	2.2	–
Cn1cncc1-c1cccc(C(=O)N2CC(C(=O)Nc3ccc(Cl)cc3)CC(F)(F)C2)c1 (stereo not shown) [Example E-047, N-(4-chlorophenyl)-5,5-difluoro-1-(3-(1-methyl-1H-imidazol-5-yl)benzoyl)piperidine-3-carboxamide]	0.31	–
O=C(Nc1ccc(Cl)cc1)C1CC(NCc2ccccc2)CN(C(=O)c2cccc(-c3ccco3)c2)C1 (stereo not shown) [Example E-048, 5-(benzylamino)-N-(4-chlorophenyl)-1-(3-(furan-2-yl)benzoyl)piperidine-3-carboxamide]	0.047	–
CCC(=O)NC1CC(C(=O)Nc2ccc(Cl)cc2)CN(C(=O)c2cccc(-c3ccco3)c2)C1 (stereo not shown) [Example E-049, N-(4-chlorophenyl)-1-(3-(furan-2-yl)benzoyl)-5-propionamidopiperidine-3-carboxamide]	6.3	–
O=C(Nc1ccc(Cl)cc1)C1CN(C(=O)c2cccc(-c3ncccn3)c2)CC(F)(F)C1 (stereo not shown) [Example E-050, N-(4-chlorophenyl)-5,5-difluoro-1-(3-(pyrimidin-2-yl)benzoyl)piperidine-3-carboxamide]	1.1	–
O=C(c1cccc(-c2cn[nH]c2)c1)N1CC(COc2ccc(Cl)cc2)CC(F)(F)C1 (stereo not shown) [Example E-051, (3-(1H-pyrazol-4-yl)phenyl)(5-((4-chlorophenoxy)methyl)-3,3-difluoropiperidin-1-yl)methanone]	3.3	–
O=C(Nc1ccc(Cl)cc1)C1CN(C(=O)c2cccc(-c3ccco3)c2)CCS1 (stereo not shown) [Example E-052, N-(4-chlorophenyl)-4-(3-(furan-2-yl)benzoyl) thiomorpholine-2-carboxamide]	1.6	–
O=C(Nc1ccc(Cl)cc1)C1CN(C(=O)c2cccc(-c3ccco3)c2)CCS1(=O)=O (stereo not shown) [Example E-053, N-(4-chlorophenyl)-4-(3-(furan-2-yl)benzoyl) thiomorpholine-2-carboxamide 1,1-dioxide]	6.8	–
O=C(NC1CC(C(=O)Nc2ccc(Cl)cc2)CN(C(=O)c2cccc(-c3ccco3)c2)C1)Oc1ccccc1 (stereo not shown) [Example E-056, phenyl (5-((4-chlorophenyl)carbamoyl)-1-(3-(furan-2-yl)benzoyl)piperidin-3-yl)carbamate]	–	38
COC(=O)NC1CC(C(=O)Nc2ccc(Cl)cc2)CN(C(=O)c2cccc(-c3ccco3)c2)C1 (stereo not shown) [Example E-057, methyl (5-((4-chlorophenyl)carbamoyl)-1-(3-(furan-2-yl)benzoyl)piperidin-3-yl)carbamate]	22	–
